Here are results for twelve molecules from US20230416261A1, “ETHANEDIAMINE-HETEROCYCLE DERIVATIVES AS INHIBITORS OF PROTEIN ARGININE METHYLTRANSFERASES” (Board of Regents, The University of Texas System, priority 2021, published 2023).

Assay [1] deals with T1, PRMT1 (Homo sapiens, UniProt Q99873). Briefly: PRMT1 Enzymatic Assay (LANCE TR-FRET, methylation of histone H4 at Arg3). The assay is classed as biochemical. Details: purchased SignalChem P365-380G. The note with it: PRMT1 1.5 nM, SAM 1 μM, biotinylated histone H4 (1-21) 25 nM; read-out: PRMT-1 IC50. As to the method:
In order to measure PRMT1 enzymatic activity the LANCE TR-FRET assay from PerkinElmer was used to follow the methylation of histone H4 at Arg3 using S-adenosyl-L-methionine (SAM) as the methyl group donor.
This enzymatic assay was performed in a 384 well, white, low volume plate (PerkinElmer, Catalog 6008289) with assay buffer consisting of 50 mM Hepes (pH 8) (Teknova, Catalog #H1090), 1 mM TCEP (Sigma, Catalog #C4706), and 0.003% Tween-20 (Thermo, Catalog #85114). Stock solutions of the test compounds were prepared in 100% DMSO (Sigma, Catalog #D2650) and serially diluted 1:3 using 100% DMSO. Compounds were additionally diluted 1:40 in assay buffer, and 2 uL/well were transferred to the assay plate. 4 uL/well (final concentration 1.5 nM) of PRMT1 protein (SignalChem, Catalog #P365-380G) diluted in assay buffer was added to the assay plate followed by a 15 min preincubation at room temperature. 4 uL/well of SAM (Sigma, Catalog #A7007) and biotinylated histone H4 (1-21) (AnaSpec, Catalog #62555) (final concentrations 1 μM and 25 nM, respectively) diluted in assay buffer were then added to the assay plate followed by a 1 hour reaction time. Final concentrations of PRMT1, SAM, and histone H4 (1-21) refer to a […].
Detection of methylated histone H4 (H4R^3me) was achieved by combining LANCE Ultra Europium-anti-H4R^3me antibody (PerkinElmer, Catalog #TRF04-14), LANCE Ultra ULight-anti-streptavidin antibody (PerkinElmer, Catalog #TRF0102), and sinefungin (Sigma, Catalog #S8559) (final concentrations 2 nM, 50 nM, and 100 μM respectively) in 1× LANCE detection buffer (PerkinElmer, Catalog #CR97-100) and adding L/well of the detection solution to the assay plate. Detection reagents were allowed to react for 1 hour at room temperature. Final concentrations in the detection solution refer to a L volume. The europium fluorescence signal and the ULight TR-FRET signal were measured using a BioTek Synergy Neo plate reader: excitation at 330 nm, emission at 620 nm and 665 nm respectively, and the ratio of the two signals (665 nm/620 nm) was used for curve fitting. IC50 values were calculated using a four-parameter logistic curve fit using Genedata Screener software.
A general note: TR-FRET usually uses a lanthanide donor and a delayed reading to cut background.

The target in assay [2] is T1, PRMT1. Briefly: PRMT1 RKO Cellular Target Engagement Assay (In-Cell Western, asymmetric di-methyl arginine). It is filed as cell-based. The note with it: RKO cells, 48 hr compound incubation; read-out: RKO IC50 (PRMT-1 Target Engagement). The method, then:
RKO cells were routinely maintained in EMEM media (ATCC, Catalog #30-2003) supplemented with 10% fetal bovine serum (Sigma, Catalog #F2442) using a humidified incubator (37° C., 5% CO2, and ambient O2).
In preparation for the In-Cell Western assay, cells were harvested and resuspended in EMEM media supplemented with 10% fetal bovine serum. Cells were seeded onto a 384 well, black, clear bottom, Poly-D-Lysine coated tissue culture plate (Greiner, Catalog #781946) at a density of 1,000 cells/well in a volume of 40 μL. The culture plate was incubated for 24 hr at 37° C. with 5% CO2 and ambient O2. Stock solutions of the test compounds were prepared in 100% DMSO (Sigma, Catalog #D2650) and serially diluted 1:3 using 100% DMSO. Compounds were additionally diluted 1:40 in culture medium, and 10 μL/well was transferred to the tissue culture plate. Following the compound addition the microplate was incubated at 37° C. for 48 hr.
The media was removed, the plate was washed with 1× PBS (Fisher Bioreagents, Catalog #BP399-20), and cells were fixed for 10 min using 30 μL/well of 4% paraformaldehyde (Electron Microscopy Sciences, Catalog #15710). The paraformaldehyde was removed, the plate was again washed with 1× PBS, and cells were permeabilized for 15 min using 30 μL/well of 1× PBS containing 0.5% Triton-X 100 (Sigma, Catalog #1001748095). The permeabilization buffer was removed, the plate was washed with 1× PBST (Boston BioProducts, Catalog #IBB-171X), and 50 μL/well of blocking buffer (LI-COR, Catalog #927-40000) was added followed by a 1 hour incubation at room temperature. The blocking buffer was removed, and 20 μL/well of anti-asymmetric di-methyl arginine antibody (Cell Signaling, Catalog #13522S) diluted 1:1000 in LI-COR blocking buffer was added to the plate and incubated overnight, in the dark at 4° C.
The primary antibody was then removed, and the plate was washed three times with 1× PBST. 20 μL/well of CellTag (LI-COR, Catalog #926-41090) and IRDye 800CW goat anti-rabbit IgG antibody (LI-COR, Catalog #926-32211), each diluted 1:500 in LI-COR blocking buffer supplemented with 0.1% Tween-20 (Thermo Scientific, Catalog #85114), were added to the plate. The plate was then incubated in the dark, at room temperature for 1 hour followed by three washes with 1× PBST and one wash with H2O. The IRDye secondary antibody signal (800 channel) and the CellTag signal (700 channel) were measured using a Licor Odyssey Imager, and the 800 channel signal was then normalized to the 700 channel signal. IC50 values were calculated using a four-parameter logistic curve fit using Genedata Screener software.

The test system of a further assay is DOHH2 cells. Briefly: DOHH2 Long Term Phenotypic Assay (7 days, Cell Titer-Glo viability). The note with it: Homo sapiens, DOHH-2, 168 h, Cell Titer-Glo 2.0. It is filed as cell-based. As to the method: DOHH2 cells were kindly provided by Michael Green (MDACC). The cells were routinely maintained in RPMI-1640 Medium (ATCC, Catalog #30-2001) supplemented with 10% fetal bovine serum (Sigma, Catalog #F2442), 100 units/mL penicillin and 100 μg/mL streptomycin (Gibco, Catalog #15140-122) in a humidified incubator (37° C., 5% CO2). Cells were seeded onto a white, CulturPlate-384 (Perkin Elmer, catalog #6007680) at a density of 250 cells per well in a volume of 50 μL. Stock solutions of the test compounds were prepared in 100% DMSO (Sigma, Catalog #D2650) and serially diluted 1:3 using 100% DMSO. Compounds were additionally diluted 1:33 in culture medium, and 10 μL/well was transferred to the tissue culture plate. Following the compound addition, the plate was incubated at 37° C. and 5% CO2 for 7 days. Cells were then mixed and a 30 μL volume was removed. Viability was assessed by a 30 μL addition of Cell Titer-Glo 2.0 (Promega, catalog #G9243). The plate was then shaken on an orbital shaker at 300 RPM for 10 minutes at room temperature, in the dark. Luminescence was measured using a PerkinElmer Envision™ plate reader. IC50 values were calculated using a four-parameter logistic curve fit using Genedata Screener software.

T1 sequence (Q99873 whole entry): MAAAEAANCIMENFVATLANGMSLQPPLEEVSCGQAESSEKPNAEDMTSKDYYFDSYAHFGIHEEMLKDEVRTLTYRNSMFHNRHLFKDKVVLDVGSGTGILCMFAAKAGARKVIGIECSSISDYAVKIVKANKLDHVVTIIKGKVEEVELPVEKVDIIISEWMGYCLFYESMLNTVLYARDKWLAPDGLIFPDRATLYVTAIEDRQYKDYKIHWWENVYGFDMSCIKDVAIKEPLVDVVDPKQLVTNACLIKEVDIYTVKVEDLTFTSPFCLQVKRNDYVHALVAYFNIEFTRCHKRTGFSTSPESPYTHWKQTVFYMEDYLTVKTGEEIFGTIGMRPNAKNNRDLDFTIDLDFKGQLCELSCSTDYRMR

A word on the IC50: it is the concentration at which inhibition is half-maximal. Consider `CCOC12CC(C(=O)N3CCn4nc(CN(C)CCNC)c(C5CCC(COC)(COC)CC5)c4C3)(C1)C2` [Example 26, (3-(4,4-bis(methoxymethyl)-cyclohexyl)-2-((methyl(2-(methylamino)ethyl)amino)-methyl)-6,7-dihydropyrazolo-[1,5-a]pyrazin-5(4H)-yl)(3-ethoxybicyclo[1.1.1]pentan-1-yl)methanone], for which the IC50 on PRMT1 [1] turned out to be 439 nM; on PRMT1 [2], 2400 nM; in the assay on DOHH2 cells, 844 nM.

Regarding `CNCCN(C)Cc1nn2c(c1C1CCC(COC)(COC)CC1)CN(C(=O)C1CCCCC1)CC2` [Example 51, (3-(4,4-bis(methoxymethyl)-cyclohexyl)-2-((methyl(2-(methylamino)ethyl)amino)-methyl)-6,7-dihydropyrazolo-[1,5-a]pyrazin-5(4H)-yl)-(cyclohexyl)methanone], the IC50 at PRMT1 [1] turned out to be 58 nM; on PRMT1 [2], 10000 nM; in the assay with DOHH2 cells, 75 nM.

Take `CNCCN(C)Cc1nn2c(c1C1CCC(COC)(COC)CC1)CN(C(=O)CC#N)CC2` [Example 52, 3-(3-(4,4-bis(methoxy-methyl)cyclohexyl)-2-((methyl(2-(methylamino)-ethyl)amino)methyl)-6,7-dihydropyrazolo[1,5-a]-pyrazin-5(4H)-yl)-3-oxopropanenitrile]: the IC50 turned out to be 71 nM on PRMT1 [1], 163 nM on PRMT1 [2] and 514 nM in the assay on DOHH2 cells.

As to `CNCCN(C)Cc1nn2c(c1C1CCC(COC)(COC)CC1)CN(C(=O)C(C)(C)COC)CC2` [Example 54, 1-(3-(4,4-bis(methoxy-methyl)cyclohexyl)-2-((methyl(2-(methylamino)-ethyl)amino)methyl)-6,7-dihydropyrazolo[1,5-a]-pyrazin-5(4H)-yl)-3-methoxy-2,2-dimethylpropan-1-one], the IC50 at PRMT1 [1] came to 103 nM; at PRMT1 [2], 203 nM; in the assay with DOHH2 cells, 293 nM.

For the molecule `CNCCN(C)Cc1nn2c(c1C1CCC(COC)(COC)CC1)CN(C(C)=O)CC2` [Example 55, 1-(3-(4,4-bis(methoxy-methyl)cyclohexyl)-2-((methyl(2-(methylamino)-ethyl)amino)methyl)-6,7-dihydropyrazolo[1,5-a]-pyrazin-5(4H)-yl)ethan-1-one], the IC50 came out at 70 nM on PRMT1 [1], 1110 nM on PRMT1 [2] and 296 nM in the assay with DOHH2 cells.

Consider `CNCCN(C)Cc1nn2c(c1C1CCC(COC)(COC)CC1)CN(C(=O)C1CCC(F)(F)C1)CC2` (stereo not drawn) [Example 56, (3-(4,4-bis(methoxymethyl)-cyclohexyl)-2-((methyl(2-(methylamino)ethyl)amino)-methyl)-6,7-dihydropyrazolo-[1,5-a]pyrazin-5(4H)-yl)(3,3-difluorocyclopentyl)-methanone], for which the IC50 on PRMT1 [1] amounted to 54 nM; on PRMT1 [2] it was 392 nM; with DOHH2 cells, 83 nM.

Consider `CNCCN(C)Cc1nn2c(c1C1CCC(COC)(COC)CC1)CN(C(=O)C1(C)CCCO1)CC2` (stereo not drawn) [Example 57, (3-(4,4-bis(methoxymethyl)-cyclohexyl)-2-((methyl(2-(methylamino)ethyl)amino)-methyl)-6,7-dihydropyrazolo-[1,5-a]pyrazin-5(4H)-yl)(2-methyltetrahydrofuran-2-yl)-methanone], for which the IC50 on PRMT1 [1] came out at 80 nM; at PRMT1 [2], 267 nM; with DOHH2 cells it was 170 nM.

`CNCCN(C)Cc1nn2c(c1C1CCC(COC)(COC)CC1)CN(C(=O)C(C)(C)F)CC2` [Example 59, 1-(3-(4,4-bis(methoxy-methyl)cyclohexyl)-2-((methyl(2-(methylamino)-ethyl)amino)methyl)-6,7-dihydropyrazolo[1,5-a]-pyrazin-5(4H)-yl)-2-fluoro-2-methylpropan-1-one]: the IC50 is 48 nM on PRMT1 [1], 177 nM at PRMT1 [2] and 113 nM with DOHH2 cells.

With `COCC1(COC)CCC(c2c(CN(C)CCN)nn3c2CN(C(=O)C2CC(C(F)(F)F)C2)CC3)CC1` (stereo not drawn) [Example 62, (2-(((2-aminoethyl)(methyl)-amino)methyl)-3-(4,4-bis-(methoxymethyl)cyclohexyl)-6,7-dihydropyrazolo[1,5-a]-pyrazin-5(4H)-yl)(3-(trifluoromethyl)cyclobutyl)-methanone], the IC50 turned out to be 23 nM on PRMT1 [1], 1380 nM on PRMT1 [2] and 76 nM in the assay with DOHH2 cells.

Take `CNCCN(C)Cc1nn2c(c1C1CCC(COC)(COC)CC1)CN(C(=O)C1(C(C)C)CCC1)CC2` [Example 64, (3-(4,4-bis(methoxymethyl)-cyclohexyl)-2-((methyl(2-(methylamino)ethyl)amino)-methyl)-6,7-dihydropyrazolo-[1,5-a]pyrazin-5(4H)-yl)(1-isopropylcyclobutyl)-methanone]: the IC50 came out at 112 nM at PRMT1 [1], 2330 nM at PRMT1 [2] and 230 nM with DOHH2 cells.

For `CCC(C)C(=O)N1CCn2nc(CN(C)CCNC)c(C3CCC(COC)(COC)CC3)c2C1` (stereo not drawn) [Example 65, 1-(3-(4,4-bis(methoxy-methyl)cyclohexyl)-2-((methyl(2-(methylamino)-ethyl)amino)methyl)-6,7-dihydropyrazolo[1,5-a]-pyrazin-5(4H)-yl)-2-methylbutan-1-one], the IC50 came to 70 nM at PRMT1 [1], 534 nM on PRMT1 [2] and 134 nM in the assay with DOHH2 cells.

With `CNCCN(C)Cc1nn2c(c1C1CCC(COC)(COC)CC1)CN(C(=O)C1CC(C(F)F)C1)CC2` (stereo not drawn) [Example 66, (3-(4,4-bis(methoxymethyl)-cyclohexyl)-2-((methyl(2-(methylamino)ethyl)amino)-methyl)-6,7-dihydropyrazolo-[1,5-a]pyrazin-5(4H)-yl)(3-(difluoromethyl)cyclobutyl)-methanone], the IC50 came out at 52 nM on PRMT1 [1], 958 nM at PRMT1 [2] and 150 nM in the assay with DOHH2 cells.
